Measured values reported in ChEMBL document CHEMBL4831516, “Development of Membrane-Active Honokiol/Magnolol Amphiphiles as Potent Antibacterial Agents against Methicillin-Resistant Staphylococcus aureus (MRSA)” (J Med Chem, 2021).
Activity calls are given as the source filed them. The rule behind the calls is not given here.

Key:
Staphylococcus aureus [1] = test: Antibacterial activity against methicillin-resistant Staphylococcus aureus clinical isolate M-20 assessed as inhibition of visible growth incubated for 16 to 18 hrs by CLSI method; assay type: functional; conditions: time 16-18 hrs, read-out: MIC100
Staphylococcus aureus [2] = test: Antibiofilm activity against methicillin-resistant Staphylococcus aureus clinical isolate 16 assessed as decrease in viable bacteria in biofilm at 2 to 64 ug/ml incubated for 16 to 18 hrs by biofilm disruption assay; assay type: functional, organism-based; conditions: dose 2-64 µg/ml, time 16-18 hrs
Cell membrane [3] = test: Induction of membrane disruption in methicillin-resistant Staphylococcus aureus clinical isolate 16 assessed as increase in green fluorescence at 10 ug/ml by SYTOX green staining based confocal laser scanning microscopy; assay type: subcellular; conditions: dose 10.0 µg/ml
Salmonella enterica = test: Antibacterial activity against Salmonella enterica 8389 assessed as inhibition of visible growth incubated for 16 to 18 hrs by CLSI method; assay type: functional; conditions: time 16-18 hrs, read-out: MIC100
Staphylococcus aureus [4] = test: Antibacterial activity against methicillin-resistant Staphylococcus aureus clinical isolate M-13 assessed as inhibition of visible growth incubated for 16 to 18 hrs by CLSI method; assay type: functional; conditions: time 16-18 hrs, read-out: MIC100
[5] = Toxicity in BALB/c mouse assessed as abnormalities and pathological changes in liver at 25 mg/kg, sc once a day for 3 days by H and E staining based assay; assay type: organism-based; conditions: in vivo, 72 h, time 3 day
Staphylococcus aureus [6] = test: Antibacterial activity against methicillin-resistant Staphylococcus aureus clinical isolate 16 infected in BALB/c mouse assessed as reduction in inflammatory cell inflammation in kidney at 25 mg/kg, sc once a day for 3 days by H and E staining based assay; assay type: functional, organism-based; conditions: time 3.0 day
[7] = Toxicity in BALB/c mouse assessed as abnormalities and pathological changes in spleen at 25 mg/kg, sc once a day for 3 days by H and E staining based assay; assay type: organism-based; conditions: in vivo, 72 h, time 3 day
Staphylococcus aureus [8] = test: Antibacterial activity against methicillin-resistant Staphylococcus aureus clinical isolate 16 infected in BALB/c mouse assessed as reduction in inflammatory cell inflammation in liver at 25 mg/kg, sc once a day for 3 days by H and E staining based assay; assay type: functional, organism-based; conditions: time 3.0 day
[9] = Selectivity index, HC50 for hemolytic activity in sheep RBC to MIC for antibacterial activity against Staphylococcus aureus ATCC29213; assay type: toxicity; conditions: sheep red blood cells (erythrocytes), read-out: Selectivity Index
Cell membrane [10] = test: Induction of membrane morphological changes in methicillin-resistant Staphylococcus aureus clinical isolate 16 assessed as intact and smooth surface at 10 ug/ml by scanning electron microscopy; assay type: subcellular; conditions: dose 10.0 µg/ml

For `C=CCc1ccc(OCCC[N+](C)(C)CC(=O)NCCCC)c(-c2ccc(OCCC[N+](C)(C)CC(=O)NCCCC)c(CC=C)c2)c1.[Br-].[Br-]`, the MIC (Staphylococcus aureus [1]) was 3 µg/mL, the Activity (Staphylococcus aureus [2]) was “Active” and the Activity (Cell membrane [3]) was “Active”. For the same compound, the MIC (Salmonella enterica) was 4 µg/mL, the MIC (Staphylococcus aureus [4]) was 1 µg/mL and the Activity [5] was “Non-Toxic”. For the same compound, the Activity (Staphylococcus aureus [6]) was “Active”, the Activity [7] was “Non-Toxic” and the Activity (Staphylococcus aureus [8]) was “Active”. The selectivity ratio [9] was 789 and the Activity (Cell membrane [10]) was “Active”.
